In ChEMBL document CHEMBL1201862, “PubChem BioAssay data set” (2004):
Calls of active or inactive are those of the source.

Tests used:
[1] = Intein inhibitors as potential Tuberculosis drugs, a cytotoxicity screen. [Related pubchem assays (depositor defined):AID2221, AID2223, AID434968, AID435010, AID449749, AID449750, AID489010]; format: functional
[2] = molecular target: T1, Protein RecA (Mycobacterium tuberculosis, UniProt P9WHJ3); assay: Fluorescence Cell-Free Homogeneous Dose Retest to Identify Inhibitors of RecA-Intein Splicing Activity. [Related pubchem assays (depositor defined):AID2097, AID2223, AID489010, AID492950]; format: functional
T1 sequence (P9WHJ3 whole entry): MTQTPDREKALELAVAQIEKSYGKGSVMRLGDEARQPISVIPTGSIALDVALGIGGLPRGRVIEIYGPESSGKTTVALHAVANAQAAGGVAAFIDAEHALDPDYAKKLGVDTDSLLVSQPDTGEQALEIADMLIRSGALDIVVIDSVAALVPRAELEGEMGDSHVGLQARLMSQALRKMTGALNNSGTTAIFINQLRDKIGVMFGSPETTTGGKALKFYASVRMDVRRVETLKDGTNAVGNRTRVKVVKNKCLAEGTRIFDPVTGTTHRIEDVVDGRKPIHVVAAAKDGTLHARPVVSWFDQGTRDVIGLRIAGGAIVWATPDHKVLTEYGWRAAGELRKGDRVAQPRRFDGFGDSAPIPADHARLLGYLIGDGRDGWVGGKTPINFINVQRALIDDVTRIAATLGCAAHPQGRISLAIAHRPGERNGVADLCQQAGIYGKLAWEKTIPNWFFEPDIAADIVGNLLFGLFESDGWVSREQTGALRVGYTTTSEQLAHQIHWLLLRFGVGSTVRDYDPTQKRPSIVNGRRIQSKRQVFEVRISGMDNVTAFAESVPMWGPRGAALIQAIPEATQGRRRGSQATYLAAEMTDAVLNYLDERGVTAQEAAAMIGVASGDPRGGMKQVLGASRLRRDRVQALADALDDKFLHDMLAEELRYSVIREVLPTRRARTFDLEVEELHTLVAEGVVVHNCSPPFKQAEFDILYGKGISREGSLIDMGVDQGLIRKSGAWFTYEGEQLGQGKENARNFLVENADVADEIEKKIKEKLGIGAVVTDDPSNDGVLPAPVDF

[3] = molecular target: T2, Replicative DNA helicase DnaB (Mycobacterium tuberculosis, UniProt P9WMR3); assay: DnaB intein splicing inhibitors, dose response, biochemical, cell-free fluorescence (AID 449749); format: functional
T2 sequence (P9WMR3 whole entry): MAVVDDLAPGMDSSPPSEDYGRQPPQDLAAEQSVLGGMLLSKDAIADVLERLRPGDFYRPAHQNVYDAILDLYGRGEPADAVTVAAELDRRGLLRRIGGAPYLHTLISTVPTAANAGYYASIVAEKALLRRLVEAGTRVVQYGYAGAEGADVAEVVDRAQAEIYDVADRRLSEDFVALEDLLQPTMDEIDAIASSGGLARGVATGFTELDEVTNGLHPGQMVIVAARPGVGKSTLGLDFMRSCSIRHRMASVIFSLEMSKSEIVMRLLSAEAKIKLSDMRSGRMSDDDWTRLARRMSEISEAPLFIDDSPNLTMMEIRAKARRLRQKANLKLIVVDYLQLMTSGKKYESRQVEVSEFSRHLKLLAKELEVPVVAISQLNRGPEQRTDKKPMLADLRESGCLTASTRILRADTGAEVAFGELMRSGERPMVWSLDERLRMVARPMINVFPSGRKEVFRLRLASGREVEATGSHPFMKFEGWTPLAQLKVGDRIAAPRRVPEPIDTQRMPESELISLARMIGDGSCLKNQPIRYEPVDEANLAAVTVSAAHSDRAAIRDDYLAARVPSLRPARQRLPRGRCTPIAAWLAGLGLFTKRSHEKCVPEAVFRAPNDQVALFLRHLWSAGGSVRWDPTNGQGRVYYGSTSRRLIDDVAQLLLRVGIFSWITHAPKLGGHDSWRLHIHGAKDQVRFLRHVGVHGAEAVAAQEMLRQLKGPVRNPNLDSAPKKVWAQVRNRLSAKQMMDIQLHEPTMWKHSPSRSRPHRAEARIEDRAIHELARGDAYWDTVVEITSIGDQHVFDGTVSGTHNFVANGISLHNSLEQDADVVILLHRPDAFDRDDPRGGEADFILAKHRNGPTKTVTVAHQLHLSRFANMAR

[4] = molecular target: T3, CAAX prenyl protease 2 (Saccharomyces cerevisiae S288c, UniProt Q03530); format: biochemical
T3 sequence (Q03530 whole entry): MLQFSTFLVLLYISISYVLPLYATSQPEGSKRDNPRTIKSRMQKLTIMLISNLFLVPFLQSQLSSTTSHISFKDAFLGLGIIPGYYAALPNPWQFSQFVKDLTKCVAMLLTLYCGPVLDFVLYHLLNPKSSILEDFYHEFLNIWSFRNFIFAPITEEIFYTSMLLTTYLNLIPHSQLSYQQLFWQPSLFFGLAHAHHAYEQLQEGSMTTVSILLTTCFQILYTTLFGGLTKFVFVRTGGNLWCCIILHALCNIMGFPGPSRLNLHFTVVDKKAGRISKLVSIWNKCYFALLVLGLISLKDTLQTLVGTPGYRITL

[5] = molecular target: T4, CAAX prenyl protease 2 (Homo sapiens, UniProt Q9Y256); assay: human Rce1 protease inhibitors, dose response, biochemical, yeast membranes, quenched-peptide fluorescence, cherry-pick (AID 588849)
T4 sequence (Q9Y256 whole entry): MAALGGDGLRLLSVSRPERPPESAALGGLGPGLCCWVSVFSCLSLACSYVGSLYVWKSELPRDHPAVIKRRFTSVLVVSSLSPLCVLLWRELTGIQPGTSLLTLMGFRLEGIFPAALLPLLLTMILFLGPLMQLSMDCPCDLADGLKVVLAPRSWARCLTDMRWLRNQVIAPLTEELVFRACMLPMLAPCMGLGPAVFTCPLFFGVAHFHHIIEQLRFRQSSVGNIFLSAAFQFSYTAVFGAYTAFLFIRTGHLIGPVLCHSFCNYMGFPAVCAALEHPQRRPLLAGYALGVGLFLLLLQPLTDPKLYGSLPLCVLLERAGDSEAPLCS

[6] = molecular target: Trypsin (Sus scrofa, UniProt P00761); assay: porcine trypsin inhibitors, dose response, selectivity assay for Rce1 protease inhibitor project, biochemical, quenched peptide fluorescence, cherry-pick (AID 488789)
[7] = NIH-3T3 fibroblast cytotoxicity, dose response, cytotoxicity control, cell-based, fluorescence, Alamar Blue, secondary assay (AID 2327); format: functional;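 further: NIH-3T3 mouse fibroblasts cultured with fluconazole at 8 µg/mL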
[8] = C. albicans growth with fluconazole, confirmation, fluorescence, retest (AID 2467); format: functional, cell-based
[9] = molecular target: T5, Adenosylmethionine-8-amino-7-oxononanoate aminotransferase (Mycobacterium tuberculosis, UniProt P9WQ81); assay: Mycobacterium tuberculosis BioA enzyme inhibitor Measured in Biochemical System Using Plate Reader - 2163-02_Inhibitor_Dose_CherryPick_Activity.; format: functional, Mycobacterium tuberculosis UT205
T5 sequence (P9WQ81 whole entry): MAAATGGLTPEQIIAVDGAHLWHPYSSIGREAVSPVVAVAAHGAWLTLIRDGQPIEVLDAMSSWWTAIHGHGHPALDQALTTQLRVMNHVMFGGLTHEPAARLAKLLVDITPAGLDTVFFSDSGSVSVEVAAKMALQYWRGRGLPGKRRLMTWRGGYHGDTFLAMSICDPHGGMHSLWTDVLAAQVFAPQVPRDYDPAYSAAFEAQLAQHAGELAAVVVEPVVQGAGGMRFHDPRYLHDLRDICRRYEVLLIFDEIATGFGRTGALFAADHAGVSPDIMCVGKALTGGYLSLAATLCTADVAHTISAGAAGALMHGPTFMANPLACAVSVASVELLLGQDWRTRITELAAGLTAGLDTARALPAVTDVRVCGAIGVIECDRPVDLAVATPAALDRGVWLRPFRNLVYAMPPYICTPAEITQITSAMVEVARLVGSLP

[10] = molecular target: T6, Hexokinase (Trypanosoma brucei, UniProt Q38C41); assay: Confirmation assay for inhibitors of Trypanosoma brucei hexokinase 1-Analogue-first series. [Related pubchem assays (depositor defined):AID1430, AID1632, AID2516, AID2560, AID2579, AID2600, AID449725, AID492951]; format: functional
T6 sequence (Q38C41 whole entry): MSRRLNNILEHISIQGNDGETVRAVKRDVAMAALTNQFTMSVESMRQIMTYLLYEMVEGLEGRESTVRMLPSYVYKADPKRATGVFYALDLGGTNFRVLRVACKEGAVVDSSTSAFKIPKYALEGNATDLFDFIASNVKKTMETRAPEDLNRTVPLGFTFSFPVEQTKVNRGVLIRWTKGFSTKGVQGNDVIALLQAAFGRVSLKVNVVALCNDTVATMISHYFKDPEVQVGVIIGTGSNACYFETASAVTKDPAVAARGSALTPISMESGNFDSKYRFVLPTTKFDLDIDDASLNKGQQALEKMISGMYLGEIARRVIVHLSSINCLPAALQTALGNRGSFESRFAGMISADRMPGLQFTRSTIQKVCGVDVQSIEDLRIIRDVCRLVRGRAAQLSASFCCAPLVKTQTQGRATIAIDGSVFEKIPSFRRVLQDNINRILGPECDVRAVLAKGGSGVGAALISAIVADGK

[11] = cytotoxicity in HPDE-C7 cells, cell-based, fluorescence, HTS (AID 430); format: functional; details: Homo sapiens
[12] = molecular target: T7, Short transient receptor potential channel 4 (Mus musculus, UniProt Q9QUQ5); assay: mouse TRPC4 channel activators, dose response, cell-based, HEK293 TRPC4/mu-opioid, Fluo-4 calcium (AID 434937); format: functional
T7 sequence (Q9QUQ5 whole entry): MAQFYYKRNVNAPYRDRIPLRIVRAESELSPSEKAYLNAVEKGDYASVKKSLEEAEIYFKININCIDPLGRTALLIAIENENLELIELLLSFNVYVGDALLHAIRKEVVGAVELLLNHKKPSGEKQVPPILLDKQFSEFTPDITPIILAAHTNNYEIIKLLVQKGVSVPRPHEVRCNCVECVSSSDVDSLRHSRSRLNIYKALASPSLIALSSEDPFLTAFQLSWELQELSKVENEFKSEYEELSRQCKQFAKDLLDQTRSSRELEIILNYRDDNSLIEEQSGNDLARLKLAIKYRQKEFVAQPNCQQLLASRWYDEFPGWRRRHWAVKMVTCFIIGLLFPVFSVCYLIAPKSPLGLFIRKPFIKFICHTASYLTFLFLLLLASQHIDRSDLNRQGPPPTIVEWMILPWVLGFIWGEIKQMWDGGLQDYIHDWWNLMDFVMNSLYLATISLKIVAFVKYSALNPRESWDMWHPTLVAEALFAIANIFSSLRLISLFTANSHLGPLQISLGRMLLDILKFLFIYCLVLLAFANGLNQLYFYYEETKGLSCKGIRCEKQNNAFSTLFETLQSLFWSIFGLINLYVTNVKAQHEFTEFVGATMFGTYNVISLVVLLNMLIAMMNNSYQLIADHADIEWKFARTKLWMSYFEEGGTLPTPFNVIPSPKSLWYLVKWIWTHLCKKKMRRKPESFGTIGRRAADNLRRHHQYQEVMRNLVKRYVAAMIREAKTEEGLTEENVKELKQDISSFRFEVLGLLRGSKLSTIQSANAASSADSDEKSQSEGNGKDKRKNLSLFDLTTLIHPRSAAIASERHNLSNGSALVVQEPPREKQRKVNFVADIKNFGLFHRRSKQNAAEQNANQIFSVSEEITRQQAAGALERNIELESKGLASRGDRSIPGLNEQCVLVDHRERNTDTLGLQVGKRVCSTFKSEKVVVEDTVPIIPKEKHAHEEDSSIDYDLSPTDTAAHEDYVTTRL

[13] = cytotoxicity in KRAS-transformed pancreatic duct cells, primary screen, cell-based, fluorescence, HTS (AID 431); format: functional; details: Homo sapiens;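 further: cell line used: HPDE-C7K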
[14] = Luminescence Cell-Based Dose Response HTS to Identify Inhibitors of 5'UTR Stem-Loop Driven Prion Protein mRNA Translation in H4 Neuroglioblastoma Cells. [Related pubchem assays: 1827 (Project Summary), 1813 (Primary HTS)]; format: functional
[15] = cytotoxicity in HEK-293T NF-kB-Luc cells, dose response, cytotoxicity control for B/T-cell NF-kB inhibitor project, cell-based, uHTS hits (AID 489019); format: functional;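 further: IC50 reflects cytotoxicity as loss of cell viability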
[16] = inhibitors of SNCA 5'UTR-driven reporter translation, confirmation, H4 neuroglioma cells, luminescence (AID 1988); format: functional, cell-based
[17] = miR-122 activators in hepatoma reporter cells, dose response, cell-based, Huh7 psiCHECK-miR122, Renilla luciferase, cherry-picked (AID 651956); format: functional;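 further: huh7 hepatoma cells stably carrying a psiCHECK-2 miR-122 sensor plasmid; renilla luciferase signal reporting endogenous miR-122 activity after 48 h compound exposure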
[18] = Luminescence Cell-Based Dose Retest to Confirm Inhibitors of Cancer Stem Cells. [Related pubchem assays (depositor defined):AID2717, AID2721]; format: functional; details: Homo sapiens
[19] = tested on: Jurkat; assay: antigen receptor-induced NF-kB inhibitors, dose response, Jurkat, luciferase reporter, luminescence, B- and T-cell (AID 489004); format: functional, cell-based; details: Homo sapiens;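 further: NF-kB luciferase reporter Jurkat cells stimulated with PMA plus ionomycin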
[20] = HEK293T cytotoxicity, dose response, cytotoxicity control for miR-122 modulator project, cell-based, inhibitor set, cherry-pick, set 2 (AID 720697); format: functional
[21] = molecular target: T7, Short transient receptor potential channel 4; assay: mouse TRPC4 channel inhibitors, dose response, cell-based, HEK293 TRPC4/mu-opioid, Fluo-4 calcium (AID 434942); format: functional;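 further: potency of inhibitors blocking the TRPC4 calcium response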
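Wherever CC50 is given: cells exposed to compound for 72 hours before luminescence readout.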

Sequence of Trypsin (P00761 whole entry): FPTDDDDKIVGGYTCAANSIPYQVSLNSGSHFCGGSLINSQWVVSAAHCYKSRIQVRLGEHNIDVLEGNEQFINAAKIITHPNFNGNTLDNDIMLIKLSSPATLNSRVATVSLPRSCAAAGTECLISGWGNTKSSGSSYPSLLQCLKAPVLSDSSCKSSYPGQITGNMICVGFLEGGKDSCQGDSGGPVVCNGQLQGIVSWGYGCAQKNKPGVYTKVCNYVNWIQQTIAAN

COC(=O)c1sc(-c2ccc(Cl)cc2)cc1NC(=O)/C=C/C(=O)O
CC50 [1]: 24.2 µM (active)
EC50 [2]: 2.44 µM (active)
AC50 [3]: 4.02 µM (active)

O=C(O)c1ccccc1NCCO
AC50 [4]: 16.1 µM (active)
AC50 [5]: 5.81 µM (active)
AC50 [6]: 8.2 µM (active)

O=[N+]([O-])c1ccc(C[n+]2c(-c3ccccc3)cc(-c3ccccc3)cc2-c2ccccc2)cc1.[O-][Cl+3]([O-])([O-])[O-]
AC50 [4]: 81.6 µM (active)
EC50 [7]: 23.7 µM (active)
AC50 [5]: 68.4 µM (active)
EC50 [8]: 2.75 µM (active)
AC50 [9]: 4.55 µM (active)

O=C(Cn1sc2ccccc2c1=O)Nc1ccccc1F
IC50 [10]: 5.8 µM (active)

COc1ccc(C(=O)Nc2cc(Cl)c(Br)cc2C(=O)O)cc1
IC50 [10]: 4.59 µM (active)

COc1cc(C(=O)Nc2cc(Cl)ccc2C(=O)O)cc(OC)c1OC
IC50 [10]: > 25 µM (inactive)

CCCCN(CC)CCCNC(=O)Cn1nc(Cc2ccncc2)c2ccccc2c1=O
EC50 [11]: > 20 µM (not active)
EC50 [12]: 0.168 µM (active)
EC50 [13]: > 20 µM (not active)

Nc1nc(Cl)nc2c1ncn2[C@H]1C[C@H](O)[C@@H](CO)O1 [CLADRIBINE]
EC50 [14]: 4.8 µM (active)
IC50 [15]: > 80 µM (inactive)
EC50 [16]: 2.96 µM (active)
AC50 [17]: 50.9 µM (active)
AC50 [18]: 0.24 µM (active)
IC50 [19]: 0.66 µM (active)
AC50 [20]: 9.07 µM (active)

OCC1(CC2CCCCO2)CCN(Cc2nc3ccccc3[nH]2)CC1 (stereo unspecified)
EC50 [21]: 3.35 µM (active)
EC50 [12]: 5.31 µM (active)
